Measured values published in PMC11714206, “Massively Parallel Screening of Toll/Interleukin‐1 Receptor (TIR)‐Derived Peptides Reveals Multiple Toll‐Like Receptors (TLRs)‐Targeting Immunomodulatory Peptides” (Advanced Science, 2024).

Molecular target: T1, MyD88^TIR (Homo sapiens, UniProt Q99836)
T1 construct: MyD88 (residues 148–296); 6xHis; made in house; host or cells: E. coli BL21 (DE3)
Assay: T‐Surf phage library (P8 and P3) selection against MyD88^TIR, four rounds, NGS read counts
Format: binding
Conditions: for Population: 4th round of selection against MyD88 TIR, share of NGS reads; for P8_MyD88 Rank (after) / P8_MyD88 Rank (before): P8 library; for P3_MyD88 Rank (after) / P3_MyD88 Rank (before): P3 library
Method in brief: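 Read counts come from NGS of phage pools after the fourth selection round, barcoded by 20-cycle PCR and filtered for quality ≥30. Each round: phage incubated 1 h at RT on immobilised TIR protein (5 µg mL^−1, BSA-blocked), washed, HCl-eluted and amplified in E. coli TG1.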

[1] = P8_MyD88: rank by count after grouping
[2] = P8_MyD88: rank by count before grouping
[3] = P8_MyD88 pool: P8 T-Surf phage library
[4] = selection against MyD88, rank by count after grouping
[5] = selection against MyD88, rank by count before grouping
[6] = selection against MyD88, rank after grouping
[7] = selection against MyD88, rank before grouping
[8] = 4R selection against MyD88, rank after grouping
[9] = 4R selection against MyD88, rank before grouping
[10] = P3_MyD88: rank by count after grouping
[11] = P3_MyD88: rank by count before grouping
[12] = selection against MyD88 TIR, rank by count after grouping
[13] = selection against MyD88 TIR, rank by count before grouping

T1 sequence (Q99836 148-296): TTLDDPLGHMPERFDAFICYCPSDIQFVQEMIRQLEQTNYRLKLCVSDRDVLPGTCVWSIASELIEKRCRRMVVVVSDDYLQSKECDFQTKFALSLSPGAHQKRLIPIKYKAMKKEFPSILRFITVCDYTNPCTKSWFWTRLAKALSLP

MDYLLRILHSSNFTTF
Rank (after) [1]: 102 | Rank (before) [2]: 105 | Population [3]: 0.022%

MEANSSRIWHRLLYSV
P8_MyD88 Rank (after) [4]: 769 | P8_MyD88 Rank (before) [5]: 3687

MFGGATLHDVLELISM
P8_MyD88 Rank (after) [6]: 509 | P8_MyD88 Rank (before) [7]: 3654

MFGGDPLHDFLDLISL
P8_MyD88 Rank (after) [8]: 592 | P8_MyD88 Rank (before) [9]: 3655

MFGGDSFHDFLELISM
Rank (after) [1]: 391 | Rank (before) [2]: 3656

MFGGDTFHDFLDLLA
P8_MyD88 Rank (after) [4]: 690 | P8_MyD88 Rank (before) [5]: 3664

MFGGDTFMIFWILLA
P8_MyD88 Rank (after) [8]: 593 | P8_MyD88 Rank (before) [9]: 3670

MNWCMCGAAKRIAWW
Rank (after) [10]: 170 | Rank (before) [11]: 1156

MVGGDTFHDFLDIISM
P8_MyD88 Rank (after) [8]: 655 | P8_MyD88 Rank (before) [9]: 3677

NDLLHVWSSKANSLVG
P3_MyD88 Rank (after) [6]: 527 | P3_MyD88 Rank (before) [7]: 3389

NDLVHGWSSKANSLVG
Rank (after) [10]: 136 | Rank (before) [11]: 3388

NDLVHVWSSKANSLVG
Population (P3_MyD88 pool: P3 T-Surf phage library): 0.00495%

NDSLFWDRLLYSLHVTE
Rank (after) [1]: 187 | Rank (before) [2]: 270

NDSLFWDRLPYSLNVT
Rank (after) [1]: 468 | Rank (before) [2]: 3868

NELCMCGAAKRIAWW
Rank (after) [10]: 175 | Rank (before) [11]: 1238

NELIDVGHSYSMHRGG
P3_MyD88 Rank (after) [4]: 743 | P3_MyD88 Rank (before) [5]: 3387

NELLHVWSSKANSLEG
P3_MyD88 Rank (after) [8]: 648 | P3_MyD88 Rank (before) [9]: 3394

NELVHEISKKMKIFATI
Rank (after) [10]: 398 | Rank (before) [11]: 3443

NELVHEWSSKANSVVG
Rank (after) [10]: 452 | Rank (before) [11]: 3442

NELVHEWSSKLMSLGV
P3_MyD88 Rank (after) [12]: 287 | P3_MyD88 Rank (before) [13]: 3397

NELVHVCFSNENSQVG
P3_MyD88 Rank (after) [12]: 275 | P3_MyD88 Rank (before) [13]: 3406

NELVHVWCCKANSQAG
Rank (after) [10]: 420 | Rank (before) [11]: 3407

NELVHVWRSKANRLVG
P3_MyD88 Rank (after) [8]: 646 | P3_MyD88 Rank (before) [9]: 3408

NELVHVWSSKANIRVC
P3_MyD88 Rank (after) [4]: 718 | P3_MyD88 Rank (before) [5]: 3399

NELVHVWSSKANSLVG
P8_MyD88 Rank (after) [4]: 696 | P8_MyD88 Rank (before) [5]: 3874

NELVHVWSSKANSLVGQ
Rank (after) [10]: 186 | Rank (before) [11]: 1250

NELVHVWSSKANSLW
P3_MyD88 Rank (after) [12]: 262 | P3_MyD88 Rank (before) [13]: 3420

NELVHVWSSKANTWW
P3_MyD88 Rank (after) [8]: 628 | P3_MyD88 Rank (before) [9]: 3431

NELVKVWSSKANRLVG
Rank (after) [10]: 393 | Rank (before) [11]: 3447

NELVNVWSSKANSQVG
P3_MyD88 Rank (after) [4]: 691 | P3_MyD88 Rank (before) [5]: 3451

NELVQVWSSKANSLVR
P3_MyD88 Rank (after) [4]: 693 | P3_MyD88 Rank (before) [5]: 3400

NELVRVWSSKANSRVG
P3_MyD88 Rank (after) [4]: 716 | P3_MyD88 Rank (before) [5]: 3402

NERGHVWSSKANSLVG
P3_MyD88 Rank (after) [8]: 615 | P3_MyD88 Rank (before) [9]: 3454

NERVHVWSSKAKSLVG
Rank (after) [10]: 443 | Rank (before) [11]: 3453

NEWVNAWTSKANRRVG
P3_MyD88 Rank (after) [8]: 602 | P3_MyD88 Rank (before) [9]: 3395

NFANSSWALDELWLIL
Rank (after) [1]: 132 | Rank (before) [2]: 145 | Population [3]: 0.0116%

NFGYSTWALDELVKIM
Rank (after) [1]: 123 | Rank (before) [2]: 132 | Population [3]: 0.0135%

NFVEYFVYQMMPDILE
Rank (after) [1]: 153 | Rank (before) [2]: 167 | Population [3]: 0.00886%

NGHENEIIKEIVETIV
P3_MyD88 Rank (after) [12]: 205 | P3_MyD88 Rank (before) [13]: 3381

NGHESEIIKEIVDTFM
P3_MyD88 Rank (after) [12]: 243 | P3_MyD88 Rank (before) [13]: 1232

NGHESEIIKEIVDTM
Rank (after) [10]: 436 | Rank (before) [11]: 3365

NGHESEIITVIVDTIV
P3_MyD88 Rank (after) [12]: 221 | P3_MyD88 Rank (before) [13]: 3351

NGHESENIKEIVDTIL
P3_MyD88 Rank (after) [12]: 212 | P3_MyD88 Rank (before) [13]: 3377

NGQSSRFKDDADLVGQ
P3_MyD88 Rank (after) [4]: 678 | P3_MyD88 Rank (before) [5]: 3337
